This note sets out measurements from PMC11385693, “Synthesis of ferrocenyl benzimidazole derivatives as novel anti-Toxoplasma gondii agents” (New Journal of Chemistry, 2024).

One experiment relates to T. gondii parasites. Nature of the experiment: Determination of ROS formation by FACS (CellROX deep red). Format: cell-based, Toxoplasma gondii. Particulars: 66 μM, 18 hours, compared with untreated parasites. The method, then: Once it had been established that two of the synthesised ferrocenyl benzimidazole derivatives were biologically active, their potential mode of action was explored. Given the presence of the ferrocenyl moiety, and the cyclic voltammetry results, it was of interest to investigate whether the compounds induce ROS, which may provide an explanation for their anti-parasitic activity. Thus, cells heavily infected with parasites were incubated with target compounds for 18 hours, before isolating the parasites and staining them with CellRox deep red reagent. CellRox is an oxidation sensitive dye which is non-fluorescent in its reduced state but fluoresces bright red at 665 nm upon being oxidised by ROS. FACS was then used to quantify CellROX parasite florescence.[56] Parasites were incubated with ferrocene carboxylic acid (FcCOOH), and untreated parasites were used as controls.
6 cm dishes of host cells heavily infected with T. gondii were untreated or treated with 66 μM (second highest concentration used in growth inhibition assays) of test compounds for 18 hours. The dishes were then scratched and syringed, before filtering the solution into 10 mL falcon tubes to remove cell debris. The tubes were spun down for 10 minutes at 1500 rpm. The media was then removed from the tubes, and the pellet resuspended in 200 μL of PBS buffer. For each drug, 100 μL of the resuspended pellet was then placed into 2 FACS tubes, one which would then be stained with CellROX dye, and the other 100 μL of PBS added to act as an unstained control. A 1 : 125 dilution of CellROX stock solution was performed, and 100 μL of this solution added to the FACS tubes needing staining. Stained tubes were incubated at 37 °C for at least 15 min before analysis on a BD Celesta flow cytometer. Data was obtained using FACSDiva software with parasites being gated on forward scatter, side scatter and green fluorescence. FlowJo v10 software was used to plot the geometric mean of CellRox fluorescence from at least 5000 parasites on the Cy7 channel.
(In flow cytometry, cells or beads pass a laser one at a time.)

Experiment [1] has as its system RhΔKu80:mNeonGreen strain of T. gondii. Nature of the experiment: microbe, parasite or virus in culture. Format: cell-based, Toxoplasma gondii. Conditions: T. gondii ΔKu80:mNeon in HFFs, 4 days, highest concentration 100 μM; NA = not active at the maximum tested concentration; three biological replicates in triplicate; read-out: EC50. The method, then:
Growth inhibition assays were carried out using the RhΔKu80:mNeonGreen strain of T. gondii, which expresses the mNeonGreen fluorescent protein.[56] Parasite growth inhibition was determined by measuring the fluorescence emission of parasite growth in increasing concentrations of compounds of interest.
T. gondii ΔKu80:mNeon tachyzoites were grown in human foreskin fibroblasts (HFFs) with Dulbecco's modified Eagle's medium (DMEM) supplemented with 3% heat inactivated foetal bovine serum (D3) as the culturing medium. Cells and parasites were maintained at 37 °C and 5% carbon dioxide (CO2).
EC50s were calculated as previously described.[56] Briefly, T. gondii ΔKu80:mNeon parasites were counted by haemocytometer and diluted to 25 000 parasites per mL in 40 mL of D3 media, to give an infection of 5000 parasites per well. The media from a black clear bottomed 96 well plate containing HFFs was then aspirated. 200 μL of uninfected D3 media was added to the top and bottom rows of wells (A and H) to serve as blanks. 200 μL of T. gondii containing D3 media was then added to the remaining wells. The parasites were allowed 2 hours to invade host cells, after which test compounds were added.
The media from the infected 96 well plates was then aspirated and 100 μL of D3 media added to each well, excluding column 12. The first 4 wells of column 12 were filled with 300 μL of drug supplemented D3 media, while the next 4 wells were filled with 300 μL of D3 media supplemented with a different drug. The drug supplemented D3 media was then serially diluted 1 : 3 across the plate, stopping at column 2 and disposing of the media, leaving all wells with 100 μL of media. Finally, the plates were closed and incubated at 37 °C with 5% CO2 for 4 days. After 4 days the fluorescence of each well on the plates was read at 594 nm emission using a PHERAstar FS microplate reader. Graphpad Prism 9 software was used to plot dose–response and determine inhibition of parasite growth.

On to `O=C(NCCn1cnc2cccnc21)[c-]1cccc1.[Fe+2].c1cc[cH-]c1` [Compound 17], for which the “ROS formation in treated parasites (CellRox red fluorescence)” value in the experiment with T. gondii parasites is given as “triggered the formation of ROS”. Moreover, the EC50 in experiment [1] was found to be 17.5 µM.

Usually EC50 stands for the concentration that produces a half-maximal response.
